Assay results as given in publication PMC4291220 (PLoS ONE, 2015).

Key:
CLIC1 [1] = biological target: CLIC1 (Homo sapiens, UniProt O00299, C59A); details: 1 mM GSH, 250 uM NADPH, 50 nM GR, pH 7, 37 °C; HEDS range printed as 0-6 mM, so printed unit uM is doubtful
CLIC2 = biological target: T1, CLIC2 (Homo sapiens, UniProt O15247); test: HEDS assay, GR-coupled NADPH oxidation at A340; assay type: biochemical; details: 5 uM protein, 1 mM HEDS, 1 mM GSH, pH 7, 37 °C
T1 construct: full length, N-terminal GST tag (pGEX-2T) cut with thrombin; E. coli BL21(DE3)
T1 sequence (O15247 whole entry): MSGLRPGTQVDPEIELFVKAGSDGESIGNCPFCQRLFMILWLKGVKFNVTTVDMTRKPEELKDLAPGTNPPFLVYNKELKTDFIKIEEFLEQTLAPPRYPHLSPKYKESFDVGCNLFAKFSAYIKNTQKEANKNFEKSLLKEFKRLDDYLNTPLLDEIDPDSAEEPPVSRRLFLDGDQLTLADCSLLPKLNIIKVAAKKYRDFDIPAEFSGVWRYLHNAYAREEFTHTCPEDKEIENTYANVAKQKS

CLIC1 [2] = biological target: T2, CLIC1 (Homo sapiens, UniProt O00299); details: 1 mM GSH, 250 uM NADPH, 50 nM GR, pH 7, 37 °C; reduced monomer; HEDS range printed as 0-6 mM, so printed unit uM is doubtful
CLIC4 [3] = biological target: T3, CLIC4 (Homo sapiens, UniProt Q9Y696); test: HEDS assay, GR-coupled NADPH oxidation at A340; assay type: biochemical; details: 5 uM protein, 1 mM HEDS, 1 mM GSH, pH 7, 37 °C
T3 sequence (Q9Y696 2-253): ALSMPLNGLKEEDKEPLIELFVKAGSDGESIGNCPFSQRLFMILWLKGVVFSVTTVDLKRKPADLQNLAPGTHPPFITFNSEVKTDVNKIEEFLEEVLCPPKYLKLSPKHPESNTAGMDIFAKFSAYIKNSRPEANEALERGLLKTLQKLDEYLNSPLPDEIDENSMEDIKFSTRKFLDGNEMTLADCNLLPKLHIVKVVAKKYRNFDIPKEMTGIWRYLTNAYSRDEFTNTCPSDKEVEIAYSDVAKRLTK

CLIC1 [4] = biological target: T2, CLIC1; test: HEDS assay, GR-coupled; assay type: biochemical; parameters: full length, His-tag (pET28a) cut with thrombin; E. coli BL21(DE3); reduced monomer by SEC; details: 5 uM CLIC1, 1 mM HEDS, 1 mM GSH, pH 7, 37 °C; mode and site not determined
CLIC4 [5] = biological target: T3, CLIC4; test: DHAR assay, GR-coupled NADPH oxidation at A340; assay type: biochemical; details: 5 uM protein, 1 mM DHA, 2 mM GSH, pH 7.5, 30 °C
O=[Se](O)O = test: purified protein; details: 50 uM GSH, 200 uM NADPH, 50 nM GR, pH 7.5, 20 °C, reduced monomer, selenite 0-16 uM

## OCCSSCCO [2-hydroxyethyl disulfide]
CLIC1 [1]
  Km: 1.25 ± 0.65 µM
CLIC2
  HEDS assay, GR-coupled NADPH oxidation at A340: all three proteins reduced the HEDS substrate when coupled with glutathione (GSH)
CLIC1 [2]
  Km: 1.28 ± 0.65 µM
CLIC4 [3]
  HEDS assay, GR-coupled NADPH oxidation at A340: all three proteins reduced the HEDS substrate when coupled with glutathione (GSH)

## O=C(O)c1c2ccccc2cc2ccccc12 [A9C]
CLIC1 [4]
  complete inhibition at 10 uM: both IAA-94 and A9C completely blocked the enzymatic activity of CLIC1

## CC1(C2CCCC2)Cc2cc(OCC(=O)O)c(Cl)c(Cl)c2C1=O (centres unmarked) [IAA-94]
CLIC1 [4]
  complete inhibition at 10 uM: both IAA-94 and A9C completely blocked the enzymatic activity of CLIC1

## O=C1O[C@H]([C@@H](O)CO)C(=O)C1=O [dehydroascorbic acid]
CLIC4 [5]
  DHAR assay, GR-coupled NADPH oxidation at A340: NADPH consumption increased in the presence of CLIC1 or CLIC4

## CLIC1 (Homo sapiens)
O=[Se](O)O
  Km: 4.81 ± 3.00 µM
